Source: US20260200937A1, “EXATECAN HYD[…] USE THEREOF” (HANGZHOU ADCORIS BIOPHARMA CO., LTD, priority 2023, published 2026)
Where two headings read alike, the source gives them in different places.

Key:
Type in all cases: cell-based
[1] = system: NCI-N87: human gastric cancer cells; assay: Tumor cell growth inhibition (CCK-8, 72 h), NCI-N87; conditions: 72 h incubation, read-out: IC50 for inhibiting the growth of tumor cells, NCI-N87
Method: (§1) • OE33: human esophageal cancer cells; • SK-BR-3: human breast cancer cells; • NCI-N87: human gastric cancer cells; • NCI-H1975: human lung cancer cells; • MDA-MB-231: human breast cancer cells; • NCI-H226: human lung squamous cell carcinoma cells; • TE12: human esophageal cancer cells.
(§2) Tumor cells OE33, SK-BR-3, NCI-N87, NCI-H1975, MDA-MB-231, NCI-H226, and TE12 were cultured separately in RPMI1640 (Cellmax) supplemented with 10% fetal bovine serum (Cellmax). Tumor cells in the exponential growth phase were diluted to a concentration of 1×10^5 cells/mL with culture medium and added to 96-well cell culture plates at 100 μL per well, then returned and incubated overnight in a 37° C. incubator with 5% CO2. On the following day, the compounds were diluted to concentrations of 10000 nM, 2000 nM, 400 nM, 80 nM, 16 nM, 3.2 nM, 0.64 nM, and 0.13 nM with culture medium, and the diluted compounds were added to the 96-well cell culture plates at 2 μL per well, with three replicate wells for each concentration. Negative control and blank control groups without addition of compounds were added with 2 μL of the dilution liquid per well. After the addition of the compounds, the plates were returned to the 37° C. incubator with 5% CO2 to continue the incubation for 72 h. After the incubation, the cell culture plates were removed, and the culture medium in the plates was aspirated using a pipette. Then, 100 μL of culture medium containing 10% CCK-8 was added to each well, and the plates were incubated at 37° C. for 3 h. After the incubation, the plates were removed, kept in the dark, and placed in an […]. Absorbance was measured at 630 nm as the reference wavelength and 450 nm as the test wavelength. Based on the absorbance values, the IC50 values (Table 1) were calculated using the four-parameter logistic regression method in GraphPad.

[2] = system: TE12: human esophageal cancer cells; assay: Tumor cell growth inhibition (CCK-8, 72 h), TE12; conditions: 72 h incubation, read-out: IC50 for inhibiting the growth of tumor cells, TE12
Method: as §1, §2

[3] = system: NCI-H226: human lung squamous cell carcinoma cells; assay: Tumor cell growth inhibition (CCK-8, 72 h), NCI-H226; conditions: 72 h incubation, read-out: IC50 for inhibiting the growth of tumor cells, NCI-H226
Method: as §1, §2

[4] = system: OE33: human esophageal cancer cells; assay: Tumor cell growth inhibition (CCK-8, 72 h), OE33; conditions: 72 h incubation, read-out: IC50 for inhibiting the growth of tumor cells, OE33
Method: as §1, §2

[5] = system: SK-BR-3: human breast cancer cells; assay: Tumor cell growth inhibition (CCK-8, 72 h), SK-BR-3; conditions: SK-BR-3 cells, 72 h incubation, read-out: IC50 for inhibiting the growth of tumor cells, SK-BR-3
Method: as §1, §2

[6] = system: NCI-H1975: human lung cancer cells; assay: Tumor cell growth inhibition (CCK-8, 72 h), NCI-H1975; conditions: 72 h incubation, read-out: IC50 for inhibiting the growth of tumor cells, NCI-H1975
Method: as §1, §2

[7] = system: MDA-MB-231: human breast cancer cells; assay: Tumor cell growth inhibition (CCK-8, 72 h), MDA-MB-231; conditions: MDA-MB-231 cells, 72 h incubation, read-out: IC50 for inhibiting the growth of tumor cells, MDA-MB-231
Method: as §1, §2

Row | SMILES | IC50 ([1]; Homo sapiens) [nM] | IC50 ([2]; Homo sapiens) [nM] | IC50 ([3]; Homo sapiens) [nM] | IC50 ([4]; Homo sapiens) [nM] | IC50 ([5]; Homo sapiens) [nM] | IC50 ([6]; Homo sapiens) [nM] | IC50 ([7]; Homo sapiens) [nM] | IC50 [1] [nM] | IC50 [2] [nM] | IC50 [3] [nM] | IC50 [4] [nM] | IC50 [5] [nM] | IC50 [6] [nM] | IC50 [7] [nM]
1 | [2H]C([2H])([2H])NOCC(=O)N[C@H]1CCc2c(C)c(F)cc3nc4c(c1c23)Cn1c-4cc2c(c1=O)COC(=O)[C@]2(O)CC [Compound D1, N-(2′-O—(N-trideuteriomethylamino)oxyacetyl)exatecan] | 2.44 | 36.7 | 22.8 | 4.32 | 2.59 | 65 | 183 |  |  |  |  |  |  | 
2 | CC[C@@]1(O)C(=O)OCc2c1cc1n(c2=O)Cc2c-1nc1cc(F)c(C)c3c1c2[C@@H](NC(=O)C1(ONC)CCC1)CC3 [Compound D2, N-(1′-O—(N-methylamino)oxycyclobutane-1′-carbonyl)exatecan] | 1.11 | 13.6 | 6.35 | 1.95 | 2.62 | 26.7 | 236 |  |  |  |  |  |  | 
3 | CC[C@@]1(O)C(=O)OCc2c1cc1n(c2=O)Cc2c-1nc1cc(F)c(C)c3c1c2[C@@H](NC(=O)[C@H](C)ONC)CC3 [Compound D3, N-(2′-methyl-2′-O—(N-methylamino)oxyacetyl)exatecan] | 1.69 | 18.5 | 7.65 | 3.8 | 4.84 | 36.9 | 237 |  |  |  |  |  |  | 
4 | [2H]C([2H])([2H])NOC([2H])([2H])C(=O)N[C@H]1CCc2c(C)c(F)cc3nc4c(c1c23)Cn1c-4cc2c(c1=O)COC(=O)[C@]2(O)CC [Compound D4, N-(2′,2′-dideuterio-2′-O—(N-trideuteriomethylamino)oxyacetyl)exatecan] | 3.68 | 33.1 | 20.8 | 5.56 | 4.48 | 64.4 | 425 |  |  |  |  |  |  | 
5 | CC[C@@]1(O)C(=O)OCc2c1cc1n(c2=O)Cc2c-1nc1cc(F)c(C)c3c1c2[C@@H](NC(=O)C1CNOC1)CC3 (stereo partly drawn) [Compound D5, N-(isoxazolidine-4′-carbonyl)exatecan] | 6.84 | 94.9 | 49.7 | 22.5 | 15.4 | 97.4 | 351 |  |  |  |  |  |  | 
6 | CC[C@@]1(O)C(=O)OCc2c1cc1n(c2=O)Cc2c-1nc1cc(F)c(C)c3c1c2[C@@H](NC(=O)CO)CC3 [Dxd, reference compound] |  |  |  |  |  |  |  | 2.48 | 21.5 | 75.1 | 7.01 | 9.69 | 25.7 | 320
